target: T1, MerTK (Homo sapiens, UniProt Q12866); test: MerTk degradation in Jurkat cells (Western blot); assay type: cell-based; settings: 0.001-1 μM, 4 hour-incubation at 37° C.
T1 construct: endogenous in cells; host or cells: Jurkat cells
T1 sequence (Q12866 21-999): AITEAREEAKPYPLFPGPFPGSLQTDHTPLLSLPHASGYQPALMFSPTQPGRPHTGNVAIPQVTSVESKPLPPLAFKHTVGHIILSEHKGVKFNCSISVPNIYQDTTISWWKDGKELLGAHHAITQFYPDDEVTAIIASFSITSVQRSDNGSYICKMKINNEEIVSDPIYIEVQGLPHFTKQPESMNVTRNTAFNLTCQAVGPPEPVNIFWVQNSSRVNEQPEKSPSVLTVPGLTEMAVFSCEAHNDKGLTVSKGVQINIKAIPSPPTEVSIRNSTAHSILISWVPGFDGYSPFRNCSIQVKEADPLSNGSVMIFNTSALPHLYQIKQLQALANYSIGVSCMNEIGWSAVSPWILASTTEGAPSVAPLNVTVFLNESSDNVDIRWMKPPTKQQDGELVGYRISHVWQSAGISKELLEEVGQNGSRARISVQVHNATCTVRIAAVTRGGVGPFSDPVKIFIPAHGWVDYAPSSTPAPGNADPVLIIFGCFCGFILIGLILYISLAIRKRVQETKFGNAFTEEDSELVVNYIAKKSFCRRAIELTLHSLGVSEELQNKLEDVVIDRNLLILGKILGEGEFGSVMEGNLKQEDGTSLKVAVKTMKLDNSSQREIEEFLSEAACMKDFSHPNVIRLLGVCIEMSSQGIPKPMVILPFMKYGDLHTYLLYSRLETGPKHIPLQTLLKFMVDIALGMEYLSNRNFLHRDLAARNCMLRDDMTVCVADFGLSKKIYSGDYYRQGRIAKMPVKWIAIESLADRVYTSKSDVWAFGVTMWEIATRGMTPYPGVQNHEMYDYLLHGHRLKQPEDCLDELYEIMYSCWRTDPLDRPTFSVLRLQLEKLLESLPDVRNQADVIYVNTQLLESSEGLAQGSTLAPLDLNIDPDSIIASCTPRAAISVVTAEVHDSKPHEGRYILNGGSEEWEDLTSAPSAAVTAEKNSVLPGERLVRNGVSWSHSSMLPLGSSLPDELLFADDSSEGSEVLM
Procedure, shortened: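 Jurkat cells treated 4 h at 37 °C with compound at 0.001-1 μM final. RIPA lysates quantified by BCA, then MerTK probed by Western blot against actin loading control with IR-dye secondaries and Odyssey imaging.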

| SMILES | Jurkat Max % MerTK Degradation |
| --- | --- |
| C[C@H](CC(F)(F)F)Nc1ncc2c(-c3ccc(CN4CCN(CCCO[C@H]5CCN(Cc6ccc7c(c6)n(C)c(=O)n7C6CCC(=O)NC6=O)C5)CC4)cc3)cn([C@H]3CC[C@H](O)CC3)c2n1 (stereo partly drawn) [I-210, 3-(3-methyl-2-oxo-5-[[(3R)-3-(3-[4-[(4-[7-[trans-4-hydroxycyclohexy1]-2-[[(2S)-4,4,4-trifluorobutan-2-yl]amino]pyrrolo[2,3-d]pyrimidin-5-yl]phenyl)methyl]piperazin-1-yl]propoxy)pyrrolidin-1-yl]methyl]-1,3-benzodiazol-1-yl)piperidine-2,6-dione] | C (maximum MerTK degradation less than or equal to 20% (≤20%)) |

same assay, conditions: Jurkat, 4 h, 0.001-1 μM, 4 hour-incubation at 37° C., read-out: Jurkat Max % MerTK Degradation

| SMILES | Dmax [%] |
| --- | --- |
| O=C(c1ccc(CNCc2ccc(-c3ccc4c(cnn4CC4CC4)c3)cc2)cc1)N1CC(C2CCN(Cc3ccc(-c4cn([C@H]5CC[C@H](O)CC5)c5nc(NCCC(F)(F)F)ncc45)cc3)CC2)C1 [I-181, trans-4-[5-[4-([4-[1-(4-[[([4-[1-(Cyclopropylmethyl)indazol-5-yl]phenyl]methyl)amino]methyl]benzoyl)azetidin-3-yl]piperidin-1-yl]methyl)phenyl]-2-[(3,3,3-trifluoropropyl)amino]pyrrolo[2,3-d]pyrimidin-7-yl]cyclohexan-1-ol] | < 20 |
| CCC[C@H](C)Nc1ncc2c(n1)n([C@H]1CC[C@H](O)CC1)cc2[C@H]1CC[C@@H](CN2CCN(CCCOC3CN(Cc4ccc5c(c4)n(C)c(=O)n5C4CCC(=O)NC4=O)C3)CC2)CC1 (stereo partly shown) [I-222] | > 50 |
| CCC[C@H](C)Nc1ncc2c(-c3ccc(CN4CCN(CCCO[C@H]5CCN(Cc6ccc7c(c6)n(C)c(=O)n7C6CCC(=O)NC6=O)C5)CC4)cc3)cn([C@H]3CC[C@H](O)CC3)c2n1 (stereo partly drawn) [I-177, 3-(3-methyl-2-oxo-5-[[(3S)-3-(3-[4-[(4-[2-[(2S)-pentan-2-ylamino]-7-[trans-4-hydroxycyclohexyl]pyrrolo[2,3-d]pyrimidin-5-yl]phenyl)methyl]piperazin-1-yl]propoxy)pyrrolidin-1-yl]methyl]-1,3-benzodiazol-1-yl)piperidine-2,6-dione] | > 50 |
| CN1CCN(Cc2ccc(-c3ccc(CO[C@H]4CCC[C@@H]4NC(=O)c4cc(-c5cnn(CCCc6cccc7c6n(C)c(=O)n7C6CCC(=O)NC6=O)c5)cnc4N)cc3)cc2)CC1 (stereo partly drawn) [I-183, 2-Amino-5-(1-[3-[1-(2,6-dioxopiperidin-3-yl)-3-methyl-2-oxo-1,3-benzodiazol-4-yl]propyl]pyrazol-4-yl)-N-[(1S,2S)-2-([4-[(4-methylpiperazin-1-yl)methyl]-[1,1-biphenyl]-4-yl]methoxy)cyclopentyl]pyridine-3-carboxamide] | < 20 |
| COc1cc(Nc2nc(N[C@H]3CCCC[C@H]3N)n3ccnc3c2C(N)=O)cc(OCCOCCOCCOCCNc2cccc3c2C(=O)N(C2CCC(=O)NC2=O)C3=O)c1 (stereo partly shown) [I-232] | < 20 |
| CCCCNc1ncc2c(-c3ccc(S(=O)(=O)N4CCN(C(=O)COCCOCCOCCOCC(=O)N[C@H](C(=O)N5C[C@H](O)C[C@H]5C(=O)NCc5ccc(-c6scnc6C)cc5)C(C)(C)C)CC4)cc3)nn([C@H]3CC[C@H](O)CC3)c2n1 [I-31, (2S,4R)-1-((S)-2-(tert-butyl)-17-(4-((4-(6-(butylamino)-1-(trans-4-hydroxycyclohexyl)-1H-pyrazolo[3,4-d]pyrimidin-3-yl)phenyl)sulfonyl)piperazin-1-yl)-4,17-dioxo-6,9,12,15-tetraoxa-3-azaheptadecanoyl)-4-hydroxy-N-(4-(4-methylthiazol-5-yl)benzyl)pyrrolidine-2-carboxamide] | 20 to 50 |
| Cc1ncsc1-c1ccc(CNC(=O)[C@@H]2C[C@@H](O)CN2C(=O)[C@@H](NC(=O)CCCCCCN2CCN(Cc3ccc(-c4cn([C@H]5CC[C@H](O)CC5)c5nc(NCCC(F)(F)F)ncc45)cc3)CC2)C(C)(C)C)cc1 [I-162, (2S,4R)-1-[(2S)-3,3-dimethyl-2-(7-[4-[(4-[7-[trans-4-hydroxycyclohexyl]-2-[(3,3,3-trifluoropropyl)amino]pyrrolo[2,3-d]pyrimidin-5-yl]phenyl)methyl]piperazin-1-yl]heptanamido)butanoyl]-4-hydroxy-N-[[4-(4-methyl-1,3-thiazol-5-yl)phenyl]methyl]pyrrolidine-2-carboxamide] | < 20 |
| C[C@H](Nc1ncc2c(-c3ccc(CN4CCN(CCCCOCCCc5ccc6c(c5)n(C)c(=O)n6C5CCC(=O)NC5=O)CC4)cc3)cn([C@H]3CC[C@H](O)CC3)c2n1)C(F)F (stereo partly shown) [I-185] | > 50 |
| Cn1c(=O)n([C@H]2CCC(=O)NC2=O)c2cccc(COCCN3CCN(Cc4ccc(-c5cn([C@H]6CC[C@H](O)CC6)c6nc(NCCC(F)(F)F)ncc56)cc4)CC3)c21 [I-152, 3-[3-methyl-2-oxo-4-[(2-[4-[(4-[7-[trans-4-hydroxycyclohexyl]-2-[(3,3,3-trifluoropropyl)amino]pyrrolo[2,3-d]pyrimidin-5-yl]phenyl)methyl]piperazin-1-yl]ethoxy)methyl]-1,3-benzodiazol-1-yl]piperidine-2,6-dione; bis(formic acid)] | > 50 |
| COc1ccc(Nc2nc(Nc3cc(OCCOCCOCCOCCOCCNc4cccc5c4C(=O)N(C4CCC(=O)NC4=O)C5=O)c(OC)cc3C)ncc2Cl)c(NS(C)(=O)=O)c1 (stereo not shown) [I-231] | < 20 |
| CCCCNc1ncc2c(-c3ccc(S(=O)(=O)N4CCN(CCOCCOCCOCCOCCNc5cccc6c5C(=O)N(C5CCC(=O)NC5=O)C6=O)CC4)cc3)nn([C@H]3CC[C@H](O)CC3)c2n1 (stereo partly drawn) [I-34, 4-((14-(4-((4-(6-(butylamino)-1-(trans-4-hydroxycyclohexyl)-1H-pyrazolo[3,4-d]pyrimidin-3-yl)phenyl)sulfonyl)piperazin-1-yl)-3,6,9,12-tetraoxatetradecyl)amino)-2-(2,6-dioxopiperidin-3-yl)isoindoline-1,3-dione] | > 50 |
| Cc1ncsc1-c1ccc(CNC(=O)[C@@H]2C[C@@H](O)CN2C(=O)[C@@H](NC(=O)C2(F)CC2)C(C)(C)C)c(OCCCCCCCN2CCN(Cc3ccc(-c4cn([C@H]5CC[C@H](O)CC5)c5nc(NCCC(F)(F)F)ncc45)cc3)CC2)c1 [I-213, (2S,4R)-1-[(2S)-2-[(1-fluorocyclopropyl)formamido]-3,3-dimethylbutanoyl]-4-hydroxy-N-[[4-(4-methyl-1,3-thiazol-5-yl)-2-[(7-[4-[(4-[7-[trans-4-hydroxycyclohexyl]-2-[(3,3,3-trifluoropropyl)amino]pyrrolo[2,3-d]pyrimidin-5-yl]phenyl)methyl]piperazin-1-yl]heptyl)oxy]phenyl]methyl]pyrrolidine-2-carboxamide] | > 50 |
| Cn1c(=O)n([C@H]2CCC(=O)NC2=O)c2ccc(CCCOCCCN3CCN(Cc4ccc(-c5cn([C@H]6CC[C@H](O)CC6)c6nc(NCCC(F)(F)F)ncc56)cc4)CC3)cc21 [I-73, 3-[3-methyl-2-oxo-5-[3-(3-[4-[(4-[7-[trans-4-hydroxycyclohexyl]-2-[(3,3,3-trifluoropropyl)amino]-7H-pyrrolo[2,3-d]pyrimidin-5-yl]phenyl)methyl]piperazin-1-yl]propoxy)propyl]-2,3-dihydro-1H-1,3-benzodiazol-1-yl]piperidine-2,6-dione; formic acid] | > 50 |
| O=C1CC[C@H](n2c3ccccc3c3c(CCCOCCOCCN4CCN(Cc5ccc(-c6cn([C@H]7CC[C@H](O)CC7)c7nc(NCCC(F)(F)F)ncc67)cc5)CC4)ccnc32)C(=O)N1 [I-126, 3-(4-[3-[2-(2-[4-[(4-[7-[trans-4-hydroxycyclohexyl]-2-[(3,3,3-trifluoropropyl)amino]-7H-pyrrolo[2,3-d]pyrimidin-5-yl]phenyl)methyl]piperazin-1-yl]ethoxy)ethoxy]propyl]-9H-pyrido[2,3-b]indol-9-yl)piperidine-2,6-dione] | > 50 |
| CCC[C@H](C)Nc1ncc2c(-c3ccc(CN4CCN(C5CC(OCCc6ccc7c(c6)n(C)c(=O)n7C6CCC(=O)NC6=O)C5)CC4)cc3)cn([C@H]3CC[C@](C)(O)CC3)c2n1 (stereo partly drawn) [I-188, 3-[3-methyl-2-oxo-5-[2-(3-[4-[(4-[2-[(2S)-pentan-2-ylamino]-7-[trans-4-hydroxy-4-methylcyclohexyl]pyrrolo[2,3-d]pyrimidin-5-yl]phenyl)methyl]piperazin-1-yl]cyclobutoxy)ethyl]-1,3-benzodiazol-1-yl]piperidine-2,6-dione; formic acid] | > 50 |

— patent publication US20260042762A1 (Kymera Therapeutics, Inc., priority 2018, published 2026)
